Where a name gives a salt, the structure may show the parent alone.
What was measured:
[1] = system: presynaptic dopamine receptors; test: Inhibition of the exploratory activity of mice (infra-red light barrier cages); assay type: in vivo
Description: The activity was measured in observation cages fitted with an infra-red light barrier. […] Groups of 5 animals are given the test substance, unless otherwise specified, in a dosage of 10 mg/kg by subcutaneous injection. […] In parallel or alternately with groups treated with test substance, control groups treated with common salt are investigated (0.9% solution; 0.1 ml/10 g of body weight by subcutaneous route).

[2] = system: Rhesus monkeys (MPTP model for Parkinson's disease)
Description: The discovery of the neurotoxin 1-methyl-4-phenyl-1,2,3,6-tetrahydropyridine (MPTP) (Langston et al., Science 219, 979 (1983)) provided an animal model for Parkinson's disease.
The irreversible neurological syndrome triggered by MPTP in man and in monkeys largely resembles the idiopathic Parkinson's disease in its clinical, pathological, biochemical and pharmacological characteristics (Markey et al., Nature 311, 464 (1984)). The reason for this convincing similarity is the fact that MPTP selectively destroys the small group of dopaminergic nerve cells in the substantia nigra of the brain which are also destroyed by degenerative processes in naturally occurring Parkinson's disease.

dopamine synthesis = test: Inhibition of dopamine synthesis (γ-butyrolactone-stimulated DOPA accumulation in corpus striatum); assay type: in vivo
Description: For this purpose, 5 animals are given the test substance in a dosage of 10 mg/kg s.c., unless otherwise stated. […] In order to inhibit the decarboxylation of DOPA, 200 mg/kg of 3-hydroxybenzyl-hydrazinhydrochloride are administered by intraperitoneal route after a further 5 minutes. Forty minutes after administration of the substance the animals are killed and the corpus striatum is prepared. The DOPA content is measured by HPLC with electrochemical detection (standard: dihydroxybenzylamine).
The percentage inhibition, produced by the test substance, of the DOPA accumulation stimulated by γ- butyrolactone compared with the controlled animals treated with 0.9% common salt solution is determined.

dopamine turnover = test: Inhibition of dopamine turnover (AMPT-induced dopamine reduction in brain); assay type: in vivo, mice
Description: The inhibition of dopamine turnover was measured in mice. In animals treated with α-methylparatyrosine (AMPT) (250 mg/kg by intraperitoneal route) 15 minutes into the experiment, the dopamine concentration throughout the brain decreases as the test progresses. By administering substances which act on autoreceptors, the dopamine reduction (compared with control animals treated with common salt solution) can be prevented. Test substances are administered at time O of the experiment in a dosage of 5 mg/kg s.c., unless otherwise stated. Four hours and 15 minutes into the experiment the animals are killed and the brains are subjected to dopamine determination using high pressure liquid chromatography with electrochemical detection. This determines the percentage inhibition, caused by the test substance, of the dopamine reduction induced by AMPT.

[3] = 10 mg/kg s.c., measurement of exploration 75 minutes after administration
[4] = 5 mg/kg s.c., AMPT 250 mg/kg i.p., brain dopamine at 4 hours 15 minutes

CCCNC1CCc2nc(N)sc2C1.Cl.Cl (stereo not shown) [Substance C, 2-amino-6-n-propylamino-4,5,6,7-tetrahydrobenzthiazol-dihydrochloride]
Inhibition of activity in percent compared with controls treated with common salt [1, 3]: 20%
Residual symptoms ([2]; 10-100 μg/kg intramuscular): an occasional transient and slight resting tremor and a reduction in rough strength
Sedation ([2]; 10-100 μg/kg intramuscular): no sedation
Circulation in the skin ([2]; 10-100 μg/kg intramuscular, compared with before administration): appeared to be greater than before
Effect of a fresh administration ([2]; after reversion to Parkinson symptoms): again leads to an improvement or substantial removal of the clinically pathological manifestations
Inhibition of DOPA accumulation in percent compared with controls treated with common salt (dopamine synthesis; 10 mg/kg s.c., γ-butyrolactone 750 mg/kg i.p., 40 minutes after administration): 60%

CN(C)C1CCc2nc(N)sc2C1.Cl.Cl (stereo not shown) [Substance A, 2-amino-6-dimethylamino-4,5,6,7-tetrahydrobenzthiazol-dihydrochloride]
ED50 (dopamine turnover; Mus musculus, sc, 50 % inhibition, curve in the range 0.5-3 mg/kg s.c., read-out: Dosage giving 50 % inhibition of AMPT effect (read off from the dosage/activity curve)): 0.95 mg/kg
% inhibition of AMPT effect (dopamine turnover; at 0.95 mg/kg s.c., read off from the dosage/activity curve (0.5-3 mg/kg s.c.)): 50%
Dosage giving 50 percent inhibition of activity (read off from the dosage/activity curve) ([1]; 50 percent inhibition, curve in the range 1-10 mg/kg s.c.): 2.7 mg/kg s.c.
Inhibition of activity in percent compared with controls treated with common salt ([1]; at 2.7 mg/kg s.c., read off from the dosage/activity curve (1-10 mg/kg s.c.)): 50%
Inhibition of DOPA accumulation in percent compared with controls treated with common salt (dopamine synthesis; at 0.55 mg/kg s.c., read off from the dosage/activity curve (0.1-1.0 mg/kg s.c.)): 50%
ED50 (dopamine synthesis; sc, 50 percent inhibition, curve in the range 0.1-1.0 mg/kg s.c., read-out: Dosage giving 50 percent inhibition of DOPA accumulation (read off from the dosage/activity curve)): 0.55 mg/kg

C=CCN(CC=C)C1CCc2nc(N)sc2C1.Cl.Cl (stereo not shown) [Substance F, 2-amino-6-diallylamino-4,5,6,7-tetrahydrobenzthiazol-dihydrochloride]
Inhibition of activity in percent compared with controls treated with common salt [1, 3]: 60%

C=CCN(Cc1ccc(Cl)cc1)C1CCc2nc(N)sc2C1 (stereo not shown) [Substance E, 6-[N-ally-N-(4-chloro-benzyl)-amino]-2-amino-4,5,6,7-tetrahydro-benzthiazol-dihydrochloride]
% inhibition of AMPT effect (dopamine turnover; [4]): 32%
Inhibition of activity in percent compared with controls treated with common salt [1, 3]: 56%

Cl.Cl.Nc1nc2c(s1)CC(N1CCCC1)CC2 (stereo not shown) [Substance B, 2-amino-6-pyrrolidino-4,5,6,7-tetrahydrobenzthiazol-dihydrochloride]
% inhibition of AMPT effect (dopamine turnover; [4]): 67%
Inhibition of activity in percent compared with controls treated with common salt ([1]; 10 mg/kg s.c., measured one hour after administration): 94%

C=CCNc1nc2c(s1)CC(N(C)C)CC2.Cl.Cl (stereo not shown) [Substance D, 2-allylamino-6-dimethylamino-4,5,6,7-tetrahydro-benzthiazol-dihydrochloride]
% inhibition of AMPT effect (dopamine turnover; [4]): 52%
Inhibition of activity in percent compared with controls treated with common salt [1, 3]: 76%
